Results as given in patent publication US11273218B2, “Methods for treating Angelman syndrome and related disorders” (Cavion, Inc., priority 2015, dated 2022).
Like-named read-outs stand apart in the source and are kept apart here.

Assays:
[1] = test system: UBE3/129sv mice; test: Audiogenic-induced epilepsy test (Test 1) in Angelman syndrome mouse model; type: in vivo; details: oral gavage for 7 days, AS mice
Description: Three separate tests were performed to determine effects of two compounds, mibefradil and MK-8998 on behavioral and physiological deficits and epilepsy in a mouse model for Angelman syndrome. The tests included: audiogenic-induced epilepsy test (Test 1, T1), a battery of motor/behavioral tests (Test 2, T2) and long-term potentiation measurements (LTP, Test 3, T3). Completion of each test provided a quantitative result of mibefradil or MK-8998 effect on this test. For all three tests, 2 separate groups of mice were generated: group 1 for test 1 and group 2 for tests 2 and 3, as shown below in see Table 2 and each group consists of 6 subgroups, a-f.
For all behavioral and electrophysiology experiments female Ube3am^−/p^+KO mice (i.e., AS mice) were crossed with wild-type males, to generate heterozygous AS mice and littermate controls in the F1 hybrid 12952-C57BL/6 background. For epilepsy tests, AS mice are crossed with controls in the 12952/SvPasCrl background. In total, 2 groups of mice are required: group 1 for the epilepsy test (Table 2, group 1a-f) and group 2 for the behavioral test battery and electrophysiology (Table 2, group 2a-f). […] The number of mice used per test/subgroup is indicated in Table 2 and ranges from 5-7 mice/subgroup for electrophysiology, 10 mice/subgroup for epilepsy test, and 12 to 15 mice/subgroup for behavioral test battery. […]

[2] = test system: CaMKIIα; details: striatum, cited from earlier work

CC(C)c1ccc(CC(=O)N[C@H](C)c2ccc(OCC(F)(F)F)cn2)cc1 [MK-8998]
treated animals with seizures eliminated completely ([1]; 60 mg/kg, audiogenic-induced seizures): about 80% | effect on audiogenic-induced seizures (in words) ([1]; 10, 30, 60 mg/kg): eliminated seizures in a dose-dependent manner

[Cl][Ni][Cl] [NiCl2]
decrease of threonine autophosphorylation of CaMKIIα ([2]; 100 μM): 35%

COCC(=O)O[C@]1(CCN(C)CCCc2nc3ccccc3[nH]2)CCc2cc(F)ccc2[C@@H]1C(C)C [mibefradil]
decrease of threonine autophosphorylation of CaMKIIα ([2]; 5 μM): 37%
